Laboratory results reported in patent US20240279635A1, “BIOFILM ACTIVITY ADJUSTING METHOD” (NATIONAL INSTITUTE FOR MATERIALS SCIENCE, priority 2021, published 2024).

Tested on: Klebsiella pneumoniae
Assay: Electric current generation by Klebsiella pneumoniae with electron mediators in a three-electrode electrochemical cell (time-current curve, FIG. 4)
Type: cell-based
Conditions: 100 μM electron mediator, 10 mM glucose, working electrode +0.2 V (vs. Ag/AgCl), 37° C., anaerobic condition, 15 hours, carbon electrodes
Description: The experiment was performed using a three-electrode electrochemical cell having carbon electrodes as the working electrode and counter electrode, and a silver/silver chloride electrode as the reference electrode.
First, as an electron source, a liquid culture medium (defined medium) containing 10 mM of glucose and 100 μM of electron mediator (see below) was added to the cell described above, to which Klebsiella pneumoniae (optical density (OD): 0.1) was inoculated, then an electric potential of the working electrode was set to +0.2 V (vs. Ag/AgCl) at 37° C., and the culture medium was incubated under anaerobic condition for 15 hours.
• HNQ: 2-hydroxy-1,4-naphthoquinone • 1-Phenazine: 1-hydroxyphenazine • AQDS: anthraquinone-1,5-disulfonate • AQS: anthraquinone-1-sulfonate • FMN: flavin mono nucleotide • RF: ribobflavin • W/O mediator: no electron mediator
FIG. 4 is a time-current curve.

O=C1C=C(O)C(=O)c2ccccc21 [HNQ, 2-hydroxy-1,4-naphthoquinone]
generated electric current (time-current curve): a large electric current could be generated
